A short description of data set [1]: Drug uptake in cytosol of human HeLa cells at 500 nM after 30 mins by FCS analysis. The conditions noted are these: 0.5 h, 0.5 µM. In kind it is ADME, subcellular.
Data set [2] is described as follows: Drug uptake in cytosol of human HeLa cells at 500 nM after 30 mins by FCS analysis relative to control. It counts as ADME, subcellular. The settings on record: 0.5 h, 0.5 µM.
Data set [3] deals with SJSA-1. In words: Cytotoxicity in human SJSA1 cells over expressing human DM2 after 24 hrs by CellTiter-Glo assay. The settings on record: SJSA-1, 24 h. It counts as functional, cell-based. In general terms: ATP-based viability assays read luminescence as a measure of living cells.

Where a SMILES comes first, the peptide text is derived from it. Bridges are numbered along the chain shown (N, C = ends). [ ]: non-standard residue; d: D form. The star is where a group is joined. X1 = CCN(CC)c1ccc2c(-c3ccc(S(=O)(=O)*)cc3S(=O)(=O)[O-])c3ccc(=[N+](CC)CC)cc-3oc2c1; R8 = C=CCCCCCC[C@@](C)(N)C(=O)O; S5 = C=CCCC[C@](C)(N)C(=O)O; βAla = NCCC(=O)O

As for `CCN(CC)c1ccc2c(-c3ccc(S(=O)(=O)NCCC(=O)N[C@@H](CC(C)C)C(=O)N[C@@H](CO)C(=O)N[C@@H](CCC(N)=O)C(=O)N[C@@H](CCC(=O)O)C(=O)N[C@H](C(=O)N[C@@H](Cc4ccccc4)C(=O)N[C@]4(C)CCCCCC/C=C/CCC[C@@](C)(C(=O)N[C@@H](CCC(=O)O)C(=O)N[C@@H](CC(N)=O)C(N)=O)NC(=O)[C@H](CC(C)C)NC(=O)[C@H](CC(C)C)NC(=O)[C@H](CCCCN)NC(=O)[C@H](Cc5c[nH]c6ccccc56)NC(=O)[C@H](CC(C)C)NC(=O)[C@H](CC(=O)O)NC4=O)[C@@H](C)O)cc3S(=O)(=O)[O-])c3ccc(=[N+](CC)CC)cc-3oc2c1`, the Drug uptake in data set [1] was found to be 62 nM; in data set [2] it was 12.4%.
For the compound `CC(=O)N[C@@H](CC(C)C)C(=O)N[C@@H](CCCNC(=N)N)C(=O)N[C@@H](CCCNC(=N)N)C(=O)N[C@@H](CCC(=O)O)C(=O)N[C@H](C(=O)N[C@@H](Cc1ccccc1)C(=O)N[C@]1(C)CCCCCC/C=C/CCC[C@@](C)(C(=O)N[C@@H](CCCNC(=N)N)C(=O)N[C@@H](CCCNC(=N)N)C(N)=O)NC(=O)[C@H](CC(C)C)NC(=O)[C@H](CCCNC(=N)N)NC(=O)[C@H](CCCCN)NC(=O)[C@H](Cc2c[nH]c3ccccc23)NC(=O)[C@H](CC(C)C)NC(=O)[C@H](CC(=O)O)NC1=O)[C@@H](C)O` (Ac-LRRETF[R8]DLWKRL[S5]RR-NH2; staple (E) 7-14), the EC50 (commonly the concentration giving half of the maximal effect) in data set [3] is 3.2 µM.
Still for that read-out and setting: the result for `CC(=O)N[C@@H](CC(C)C)C(=O)N[C@@H](CCCNC(=N)N)C(=O)N[C@@H](CCCNC(=N)N)C(=O)N[C@@H](CCC(=O)O)C(=O)N[C@H](C(=O)N[C@@H](Cc1ccccc1)C(=O)N[C@]1(C)CCCCCC/C=C/CCC[C@@](C)(C(=O)N[C@@H](CCCNC(=N)N)C(=O)N[C@@H](CC(N)=O)C(N)=O)NC(=O)[C@H](CC(C)C)NC(=O)[C@H](CCCNC(=N)N)NC(=O)[C@H](CCCCN)NC(=O)[C@H](Cc2c[nH]c3ccccc23)NC(=O)[C@H](CCCNC(=N)N)NC(=O)[C@H](CC(=O)O)NC1=O)[C@@H](C)O` (Ac-LRRETF[R8]DRWKRL[S5]RN-NH2; staple (E) 7-14) reads 7.7 µM; that for `CC(=O)N[C@@H](CC(C)C)C(=O)N[C@@H](CO)C(=O)N[C@@H](CCC(N)=O)C(=O)N[C@@H](CCC(=O)O)C(=O)N[C@H](C(=O)N[C@@H](C)C(=O)N[C@]1(C)CCCCCC/C=C/CCC[C@@](C)(C(=O)N[C@@H](CCCNC(=N)N)C(=O)N[C@@H](CCCNC(=N)N)C(N)=O)NC(=O)[C@H](CC(C)C)NC(=O)[C@H](CCCNC(=N)N)NC(=O)[C@H](CCCNC(=N)N)NC(=O)[C@H](Cc2c[nH]c3ccccc23)NC(=O)[C@H](CC(C)C)NC(=O)[C@H](CCCNC(=N)N)NC1=O)[C@@H](C)O` (Ac-LSQETA[R8]RLWRRL[S5]RR-NH2; staple (E) 7-14), 4.8 µM; that for `CC(=O)N[C@@H](CC(C)C)C(=O)N[C@@H](CO)C(=O)N[C@@H](CCC(N)=O)C(=O)N[C@@H](CCC(=O)O)C(=O)N[C@H](C(=O)N[C@@H](Cc1ccccc1)C(=O)N[C@]1(C)CCCCCC/C=C/CCC[C@@](C)(C(=O)N[C@@H](CCCNC(=N)N)C(=O)N[C@@H](CCCNC(=N)N)C(N)=O)NC(=O)[C@H](CC(C)C)NC(=O)[C@H](CCCNC(=N)N)NC(=O)[C@H](CCCNC(=N)N)NC(=O)[C@H](Cc2c[nH]c3ccccc23)NC(=O)[C@H](CC(C)C)NC(=O)[C@H](CCCNC(=N)N)NC1=O)[C@@H](C)O` (Ac-LSQETF[R8]RLWRRL[S5]RR-NH2; staple (E) 7-14), 1.9 µM.
Still for that read-out and setting: the value for `CC(=O)N[C@@H](CCC(N)=O)C(=O)N[C@@H](CO)C(=O)N[C@@H](CCC(N)=O)C(=O)N[C@@H](CCC(N)=O)C(=O)N[C@H](C(=O)N[C@@H](Cc1ccccc1)C(=O)N[C@]1(C)CCCCCC/C=C/CCC[C@@](C)(C(=O)N[C@@H](CCC(N)=O)C(=O)N[C@@H](CC(N)=O)C(N)=O)NC(=O)[C@H](CC(C)C)NC(=O)[C@H](CC(C)C)NC(=O)[C@H](CCCCN)NC(=O)[C@H](Cc2c[nH]c3ccccc23)NC(=O)[C@H](CC(C)C)NC(=O)[C@H](CC(N)=O)NC1=O)[C@@H](C)O` (Ac-QSQQTF[R8]NLWKLL[S5]QN-NH2; staple (E) 7-14) was 10.2 µM; that for `CC(=O)N[C@@H](CCCNC(=N)N)C(=O)N[C@@H](CCCNC(=N)N)C(=O)N[C@@H](CCCNC(=N)N)C(=O)N[C@@H](CCCNC(=N)N)C(=O)N[C@@H](CCCNC(=N)N)C(=O)N[C@@H](Cc1ccccc1)C(=O)N[C@]1(C)CCCCCC/C=C/CCC[C@@](C)(C(=O)N[C@@H](CCC(=O)O)C(=O)N[C@@H](CC(N)=O)C(N)=O)NC(=O)[C@H](CC(C)C)NC(=O)[C@H](CC(C)C)NC(=O)[C@H](CCCCN)NC(=O)[C@H](Cc2c[nH]c3ccccc23)NC(=O)[C@H](CC(C)C)NC(=O)[C@H](CC(=O)O)NC1=O` (Ac-RRRRRF[R8]DLWKLL[S5]EN-NH2; staple (E) 7-14) was 1.6 µM.
Same read-out and setting: the value for `CC(=O)N[C@@H](CCCNC(=N)N)C(=O)N[C@@H](CO)C(=O)N[C@@H](CCC(N)=O)C(=O)N[C@@H](CCC(=O)O)C(=O)N[C@@H](CCCNC(=N)N)C(=O)N[C@@H](Cc1ccccc1)C(=O)N[C@]1(C)CCCCCC/C=C/CCC[C@@](C)(C(=O)N[C@@H](CCCNC(=N)N)C(=O)N[C@@H](CCCNC(=N)N)C(N)=O)NC(=O)[C@H](CC(C)C)NC(=O)[C@H](CCCNC(=N)N)NC(=O)[C@H](CCCCN)NC(=O)[C@H](Cc2c[nH]c3ccccc23)NC(=O)[C@H](CC(C)C)NC(=O)[C@H](CC(=O)O)NC1=O` (Ac-RSQERF[R8]DLWKRL[S5]RR-NH2; staple (E) 7-14) was 7.7 µM; that for `CC(=O)N[C@@H](CCCNC(=N)N)C(=O)N[C@@H](CO)C(=O)N[C@@H](CCC(N)=O)C(=O)N[C@@H](CCC(=O)O)C(=O)N[C@@H](CCCNC(=N)N)C(=O)N[C@@H](Cc1ccccc1)C(=O)N[C@]1(C)CCCCCC/C=C/CCC[C@@](C)(C(=O)N[C@@H](CCC(=O)O)C(=O)N[C@@H](CC(N)=O)C(N)=O)NC(=O)[C@H](CC(C)C)NC(=O)[C@H](CCCNC(=N)N)NC(=O)[C@H](CCCNC(=N)N)NC(=O)[C@H](Cc2c[nH]c3ccccc23)NC(=O)[C@H](CC(C)C)NC(=O)[C@H](CCCNC(=N)N)NC1=O` (Ac-RSQERF[R8]RLWRRL[S5]EN-NH2; staple (E) 7-14) was 7.2 µM; that for `CC(=O)N[C@@H](CCCNC(=N)N)C(=O)N[C@@H](CO)C(=O)N[C@@H](CCC(N)=O)C(=O)N[C@@H](CCCNC(=N)N)C(=O)N[C@@H](CCCNC(=N)N)C(=O)N[C@@H](Cc1ccccc1)C(=O)N[C@]1(C)CCCCCC/C=C/CCC[C@@](C)(C(=O)N[C@@H](CCC(=O)O)C(=O)N[C@@H](CC(N)=O)C(N)=O)NC(=O)[C@H](CC(C)C)NC(=O)[C@H](CC(C)C)NC(=O)[C@H](CCCNC(=N)N)NC(=O)[C@H](Cc2c[nH]c3ccccc23)NC(=O)[C@H](CC(=O)O)NC(=O)[C@H](CCCNC(=N)N)NC1=O` (Ac-RSQRRF[R8]RDWRLL[S5]EN-NH2; staple (E) 7-14) was 1.9 µM.
As to `CCN(CC)c1ccc2c(-c3ccc(S(=O)(=O)NCCC(=O)N[C@@H](CC(C)C)C(=O)N[C@@H](CO)C(=O)N[C@@H](CCC(N)=O)C(=O)N[C@@H](CCC(=O)O)C(=O)N[C@H](C(=O)N[C@@H](Cc4ccccc4)C(=O)N[C@]4(C)CCCCCC/C=C/CCC[C@@](C)(C(=O)N[C@@H](CCCNC(=N)N)C(=O)N[C@@H](CCCNC(=N)N)C(N)=O)NC(=O)[C@H](CC(C)C)NC(=O)[C@H](CCCNC(=N)N)NC(=O)[C@H](CCCNC(=N)N)NC(=O)[C@H](Cc5c[nH]c6ccccc56)NC(=O)[C@H](CC(C)C)NC(=O)[C@H](CCCNC(=N)N)NC4=O)[C@@H](C)O)cc3S(=O)(=O)[O-])c3ccc(=[N+](CC)CC)cc-3oc2c1` ({X1-βAla}-LSQETF[R8]RLWRRL[S5]RR-NH2; staple (E) 7-14), the Drug uptake in data set [1] is on record as 284 nM.
As to `CCN(CC)c1ccc2c(-c3ccc(S(=O)(=O)NCCC(=O)N[C@@H](CCC(N)=O)C(=O)N[C@@H](CO)C(=O)N[C@@H](CCC(N)=O)C(=O)N[C@@H](CCC(N)=O)C(=O)N[C@H](C(=O)N[C@@H](Cc4ccccc4)C(=O)N[C@]4(C)CCCCCC/C=C/CCC[C@@](C)(C(=O)N[C@@H](CCC(N)=O)C(=O)N[C@@H](CC(N)=O)C(N)=O)NC(=O)[C@H](CC(C)C)NC(=O)[C@H](CC(C)C)NC(=O)[C@H](CCCCN)NC(=O)[C@H](Cc5c[nH]c6ccccc56)NC(=O)[C@H](CC(C)C)NC(=O)[C@H](CC(N)=O)NC4=O)[C@@H](C)O)cc3S(=O)(=O)[O-])c3ccc(=[N+](CC)CC)cc-3oc2c1` ({X1-βAla}-QSQQTF[R8]NLWKLL[S5]QN-NH2; staple (E) 7-14), the figures for the Drug uptake in data set [1] and in data set [2] were 256 to 260 nM and 51.9%, respectively.
On to `CCN(CC)c1ccc2c(-c3ccc(S(=O)(=O)NCCC(=O)N[C@@H](CCCNC(=N)N)C(=O)N[C@@H](CO)C(=O)N[C@@H](CCC(N)=O)C(=O)N[C@@H](CCC(=O)O)C(=O)N[C@@H](CCCNC(=N)N)C(=O)N[C@@H](Cc4ccccc4)C(=O)N[C@]4(C)CCCCCC/C=C/CCC[C@@](C)(C(=O)N[C@@H](CCC(=O)O)C(=O)N[C@@H](CC(N)=O)C(N)=O)NC(=O)[C@H](CC(C)C)NC(=O)[C@H](CCCNC(=N)N)NC(=O)[C@H](CCCNC(=N)N)NC(=O)[C@H](Cc5c[nH]c6ccccc56)NC(=O)[C@H](CC(C)C)NC(=O)[C@H](CCCNC(=N)N)NC4=O)cc3S(=O)(=O)[O-])c3ccc(=[N+](CC)CC)cc-3oc2c1` ({X1-βAla}-RSQERF[R8]RLWRRL[S5]EN-NH2; staple (E) 7-14), for which the Drug uptake amounted to 69 nM in data set [1] and 13.8% in data set [2].
As for `COc1ccc(C2=N[C@@H](c3ccc(Cl)cc3)[C@@H](c3ccc(Cl)cc3)N2C(=O)N2CCNC(=O)C2)c(OC(C)C)c1` [NUTLIN-3], the concentration giving a half-maximal response (EC50) in data set [3] turned out to be 22.8 µM.

Source of the values: ChEMBL document CHEMBL4184165, “Unique arginine array improves cytosolic localization of hydrocarbon-stapled peptides” (Bioorg Med Chem, 2018).
